In PubChem BioAssay (NCI):
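Interpolation was linear, between the two tested concentrations surrounding the appropriate level; five concentrations were tested over 48 hours in 96-well plates. TGI is the concentration that stops growth completely.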

Columns and labels:
Experiment in all cases: NCI-60 cell line screen, 48 h
[1] = tested on: 786-0 renal
[2] = tested on: A498 renal
[3] = tested on: A549 NSCLC
[4] = tested on: ACHN renal
[5] = tested on: BT-549 breast
[6] = tested on: CAKI-1 renal
[7] = tested on: CCRF-CEM leukemia
[8] = tested on: COLO 205 colon
[9] = tested on: DU-145 prostate
[10] = tested on: EKVX NSCLC
[11] = tested on: HCC-2998 colon
[12] = tested on: HCT-116 colon
[13] = tested on: HCT-15 colon
[14] = tested on: HOP-62 NSCLC
[15] = tested on: HOP-92 NSCLC
[16] = tested on: HT29 colon
[17] = tested on: IGROV1 ovarian
[18] = tested on: K-562 leukemia
[19] = tested on: LOX IMVI melanoma
[20] = tested on: M14 melanoma
[21] = tested on: MALME-3M melanoma
[22] = tested on: MCF7 breast
[23] = tested on: MDA-MB-231 breast
[24] = tested on: MDA-MB-435
[25] = tested on: MDA-N
[26] = tested on: MOLT-4 leukemia
[27] = tested on: NCI-H226 lung
[28] = tested on: NCI-H23 lung
[29] = tested on: NCI-H460 lung
[30] = tested on: NCI-H522 lung
[31] = tested on: NCI/ADR-RES ovarian
[32] = tested on: OVCAR-3 ovarian
[33] = tested on: OVCAR-4 ovarian
[34] = tested on: OVCAR-5 ovarian
[35] = tested on: OVCAR-8 ovarian
[36] = tested on: PC-3 prostate
[37] = tested on: RPMI-8226 leukemia
[38] = tested on: RXF 393 renal
[39] = tested on: SF-268 CNS
[40] = tested on: SF-295 CNS
[41] = tested on: SF-539 CNS
[42] = tested on: SK-MEL-2 melanoma
[43] = tested on: SK-MEL-28 melanoma
[44] = tested on: SK-MEL-5 melanoma
[45] = tested on: SK-OV-3 ovarian
[46] = tested on: SN12C renal
[47] = tested on: SNB-19 CNS
[48] = tested on: SR leukemia
[49] = tested on: SW-620 colon
[50] = tested on: T-47D breast
[51] = tested on: TK-10 renal
[52] = tested on: U251 CNS
[53] = tested on: UACC-257 melanoma
[54] = tested on: UACC-62 melanoma
[55] = tested on: UO-31 renal
[56] = tested on: HL-60(TB) leukemia
[57] = tested on: HS 578T breast
[58] = tested on: KM12 colon
[59] = tested on: SNB-75 CNS

For `COc1cccc2c(Nc3ccc(S(=O)(=O)N=C(N)N)cc3)c3ccc([N+](=O)[O-])cc3nc12`, the TGI [1] was 46.7 µM, the TGI [2] was 44.9 µM and the TGI [3] was greater than 100 µM. For the same molecule, the TGI [4] was 31.9 µM, the TGI [5] was 46.1 µM and the TGI [6] was 32.1 µM. The TGI [7] was 31.6 µM, the TGI [8] was greater than 100 µM and the TGI [9] was greater than 100 µM. The TGI [10] was greater than 100 µM, the TGI [11] was 87.2 µM and the TGI [12] was greater than 100 µM. The TGI [13] was greater than 100 µM, the TGI [14] was 64.3 µM and the TGI [15] was greater than 100 µM. The TGI [16] was greater than 100 µM, the TGI [17] was 31.4 µM and the TGI [18] was greater than 100 µM. The TGI [19] was 57 µM, the TGI [20] was greater than 100 µM and the TGI [21] was 31.4 µM. For the same molecule, the TGI [22] was greater than 100 µM, the TGI [23] was 18 µM and the TGI [24] was greater than 100 µM. The TGI [25] was 61.1 µM, the TGI [26] was greater than 100 µM and the TGI [27] was greater than 100 µM. It also gave a TGI [28] of 52.3 µM, a TGI [29] greater than 100 µM and a TGI [30] of 36.5 µM. For the same molecule, the TGI [31] was greater than 100 µM, the TGI [32] was greater than 100 µM and the TGI [33] was greater than 100 µM. For the same molecule, the TGI [34] was greater than 100 µM, the TGI [35] was greater than 100 µM and the TGI [36] was greater than 100 µM. For the same molecule, the TGI [37] was 86.5 µM, the TGI [38] was greater than 100 µM and the TGI [39] was greater than 100 µM. The TGI [40] was greater than 100 µM, the TGI [41] was greater than 100 µM and the TGI [42] was 37.6 µM. The TGI [43] was greater than 100 µM, the TGI [44] was 45.5 µM and the TGI [45] was greater than 100 µM. The TGI [46] was greater than 100 µM, the TGI [47] was greater than 100 µM and the TGI [48] was 70.7 µM. For the same molecule, the TGI [49] was greater than 100 µM, the TGI [50] was 85.9 µM and the TGI [51] was greater than 100 µM. The TGI [52] was greater than 100 µM, the TGI [53] was 56.1 µM and the TGI [54] was 32.8 µM. The TGI [55] was 44.7 µM.

`CC1(C)CN=C(Nc2ccc(F)cc2)S1` showed a TGI [1] greater than 100 µM, a TGI [3] greater than 100 µM and a TGI [4] greater than 100 µM. For the same molecule, the TGI [5] was greater than 100 µM, the TGI [6] was greater than 100 µM and the TGI [7] was greater than 100 µM. For the same molecule, the TGI [8] was greater than 100 µM, the TGI [9] was greater than 100 µM and the TGI [10] was greater than 100 µM. The TGI [11] was greater than 100 µM, the TGI [12] was greater than 100 µM and the TGI [13] was greater than 100 µM. For the same molecule, the TGI [56] was greater than 100 µM, the TGI [14] was greater than 100 µM and the TGI [15] was greater than 100 µM. It also gave a TGI [57] greater than 100 µM, a TGI [16] greater than 100 µM and a TGI [17] greater than 100 µM. It also gave a TGI [18] greater than 100 µM, a TGI [58] greater than 100 µM and a TGI [19] greater than 100 µM. It also gave a TGI [20] greater than 100 µM, a TGI [21] greater than 100 µM and a TGI [22] greater than 100 µM. It also gave a TGI [24] greater than 100 µM, a TGI [25] greater than 100 µM and a TGI [26] greater than 100 µM. It also gave a TGI [27] greater than 100 µM, a TGI [28] greater than 100 µM and a TGI [30] greater than 100 µM. The TGI [31] was greater than 100 µM, the TGI [32] was greater than 100 µM and the TGI [33] was greater than 100 µM. It also gave a TGI [34] greater than 100 µM, a TGI [35] greater than 100 µM and a TGI [36] greater than 100 µM. For the same molecule, the TGI [37] was greater than 100 µM, the TGI [38] was greater than 100 µM and the TGI [39] was greater than 100 µM. For the same molecule, the TGI [40] was greater than 100 µM, the TGI [41] was greater than 100 µM and the TGI [42] was greater than 100 µM. It also gave a TGI [43] greater than 100 µM, a TGI [44] greater than 100 µM and a TGI [45] greater than 100 µM. For the same molecule, the TGI [46] was greater than 100 µM, the TGI [47] was greater than 100 µM and the TGI [59] was greater than 100 µM. It also gave a TGI [48] greater than 100 µM, a TGI [49] greater than 100 µM and a TGI [50] greater than 100 µM. The TGI [51] was greater than 100 µM, the TGI [52] was greater than 100 µM and the TGI [53] was greater than 100 µM. For the same molecule, the TGI [54] was greater than 100 µM and the TGI [55] was greater than 100 µM.
